Measured values reported in patent US11590116B2 (THERAVANCE BIOPHARMA R&D IP, LLC, priority 2019, dated 2023).
Read-outs that look alike come from different tables or passages of the source.

What was measured:
[1] = molecular target: T1, recombinant human ALK5 (TGF-βR1) protein (Homo sapiens, UniProt P36897); experiment: Biochemical ALK5 (TGF-βR1) assay to measure pKi (LANCE Ultra ULight kinase assay); conditions: apparent pKi from pIC50 by Cheng-Prusoff
T1 construct: purchased Life Technologies PR9075A
T1 sequence (P36897 34-503): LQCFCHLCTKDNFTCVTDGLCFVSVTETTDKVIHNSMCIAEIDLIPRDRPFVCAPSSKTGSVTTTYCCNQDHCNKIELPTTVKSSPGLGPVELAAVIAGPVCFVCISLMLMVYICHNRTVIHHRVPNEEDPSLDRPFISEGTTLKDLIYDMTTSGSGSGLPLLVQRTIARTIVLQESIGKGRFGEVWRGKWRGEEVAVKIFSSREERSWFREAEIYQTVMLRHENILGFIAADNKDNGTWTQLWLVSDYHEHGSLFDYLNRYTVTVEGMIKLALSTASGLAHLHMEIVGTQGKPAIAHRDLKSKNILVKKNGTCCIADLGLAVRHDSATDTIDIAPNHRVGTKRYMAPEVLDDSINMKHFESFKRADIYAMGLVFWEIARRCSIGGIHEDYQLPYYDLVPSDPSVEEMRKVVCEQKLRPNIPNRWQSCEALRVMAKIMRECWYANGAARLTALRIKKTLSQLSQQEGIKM
Experimental: The assays were performed in a 384-well plate (24 columns×16 wells/rows). An Echo® 550 Liquid Handler (Labcyte) was used to prepare various intermediate concentrations of compounds of the present disclosure in 100% DMSO. From the intermediate concentrations, a range of concentrations (from 10 μM to 25 pM corresponding to volumes up to 105 nL) were prepared and ejected into a final assay plate to be used to create individual dose response curves for each of the subject compounds. To a separate column within the assay plate, 105 nL of DMSO in each well was used to establish a maximum assay signal.
With a multidrop dispenser, 8 μL of enzyme mixture (1.25× final) was added to each well. […] The plate was then sealed with an adhesive seal and allowed to equilibrate for 60 minutes at room temperature.
Next, 2 μL of 125 μM ATP (5× final, 125 μM ATP prepared in assay buffer with 2 mM DTT) was added to the incubated mixtures, covered with a MicroClime® Environmental Lid (Product No. LLS-0310, Labcyte) and immediately transferred to 37° C. The reactions were allowed to proceed at 37° C. for 60 minutes before terminating with the addition of 10 μL of detection antibody (LANCE® (lanthanide chelate excite) Ultra Europium-anti-phospo-DNA Topoisomerase 2-alpha (Thr1342)) in detection mixture (12 mM EDTA, 4 nM detection antibody prepared in detection buffer (50 mM Tris-HCl, 150 mM NaCl, 0.5% BSA (Fraction V), pH 7.0)) at room temperature. The plate was then read on a Perkin Elmer EnVision Plate Reader using europium specific reader settings with excitation and emission wavelengths set to 320 or 340 nm and 665 nm, respectively.
For dose-response analyses, percent inhibition versus compound concentrations were plotted, and pIC50 values were determined from a 4-parameter robust fit model with GraphPad Prism V5 Software (GraphPad Software, Inc., La Jolla, Calif.). This model obtains pIC50 values by fitting the sigmoidal dose-response (variable slope) equation to the data. Results were expressed as pIC50 (negative logarithm of IC50) and subsequently converted to pKi (negative logarithm of dissociate constant, K) using the Cheng-Prusoff equation. The higher the value of pKi (lower value of Ki), the greater the inhibition of ALK5 activity.

[2] = tested on: TGF-β-stimulated SMAD3 phosphorylation in BEAS-2B cells; experiment: Cellular ALK5 potency assay, inhibition of TGF-β stimulated pSMAD3 formation in BEAS-2B cells; assay type: cell-based; conditions: Homo sapiens, read-out: BEAS2B pIC50 (converted)
Experimental: The potency of compounds of the present disclosure for inhibition of TGF-β-stimulated SMAD3 phosphorylation was measured in BEAS-2B cells, a human lung epithelial cell line. TGF-β signals through activin receptor-like kinase 5 (ALK5) immediately prior to SMAD3 phosphorylation.
BEAS-2B cells were grown using 50% DMEM (Life Technologies) and 50% F-12 (Life Technologies) media, supplemented with 10% Fetal Bovine Serum (ATCC), 25 mM HEPES (Life Technologies), and 1× Pen-Strep (Life Technologies). Cells were cultured in a humidified incubator set at 37° C., 5% CO2, and trypsonized using 0.25% Trypsin with 0.5% polyvinylpyrrolidone (PVP).
For the assay, BEAS-2B cells were seeded at 7,500 cells/well (25 μL/well) in a 384-well plate and cultured overnight. Before dosing, growth media was aspirated and the wells were rinsed with HBSS Buffer (HBSS with Calcium and Magnesium, Life Technologies) supplemented with 25 mM HEPES (Life Technologies) and 1% Bovine Serum Albumin (Roche). Compounds were serially diluted in DMSO, then further diluted with supplemented HBSS Buffer (50 μL/well) to create a compound plate 3× of the final assay concentration, at 0.3% DMSO. The diluted compounds were then added to the cells (8 μL/well) and incubated at 37° C., 5% CO2 for 1 hour. After the compound incubation, TGF-β (R&D Systems) reconstituted in supplemented HBSS Buffer was added to the cells ([…], final concentration 10 ng/mL) and incubated for a further 30 minutes, after which the cells were immediately lysed with AlphaLISA lysis buffer (PerkinElmer). AlphaLISA Acceptor and Detector beads (PerkinElmer) were added 2 hours apart, then incubated overnight to be read the next day. The potency of the compound was determined through analysis of dose-dependent quantified changes in pSMAD3 signal from baseline (non-compound treated TGF-β stimulated cells). Data are expressed as pIC50 (negative decadic logarithm IC50) values.

[3] = inhibition of TGF-β stimulated pSMAD3 formation, BEAS-2B cells

Row | Ki ([1]; read-out: ALK5 pKi (converted)) [nM] | SMILES | IC50 [2, 3] [nM] | Ki ([1]; ALK5 pKi) [nM] | IC50 ([2]; BEAS-2B) [nM]
1 | 0.0398 to 0.316 | Cc1cccc(-c2nc3ccccn3c2-c2ccc3ncc(N4CCC(N(C)C)C4)cc3n2)n1 (racemic) [Compound 285, rac-(3S)-N,N-dimethyl-1-[6-[2-(6-methyl-2-pyridyl)imidazo[1,2-a]pyridin-3-yl]-1,5-naphthyridin-3-yl]pyrrolidin-3-amine] | 25.1 to 158 |  | 
2 | 0.0398 to 0.316 | Cc1cccc(-c2n[nH]cc2-c2ccc3ncc(N4C[C@@H](C)N(C)C[C@H]4C)cc3n2)n1 (racemic) [Compound 296, 2-[3-(6-methyl-2-pyridyl)-1H-pyrazol-4-yl]-7-[rac-(2R,5R)-2,4,5-trimethylpiperazin-1-yl]-1,5-naphthyridine] | 25.1 to 158 |  | 
3 | 0.0398 to 0.316 | COCC1CN(c2cnc3ccc(-c4c[nH]nc4-c4cccc(C)n4)nc3c2)CCN1 (racemic) [Compound 298, 2-[3-(6-methyl-2-pyridyl)-1H-pyrazol-4-yl]-7-[rac-(3R)-3-(methoxymethyl)piperazin-1-yl]-1,5-naphthyridine] | 25.1 to 158 |  | 
4 | < 0.0316 | Cc1cccc(-c2n[nH]cc2-c2ccc3ncc(N4CCC(O)C4)cc3n2)n1 (racemic) [Compound 312, rac-(3R)-1-[6-[3-(6-methyl-2-pyridyl)-1H-pyrazol-4-yl]-1,5-naphthyridin-3-yl]pyrrolidin-3-ol] | < 20 |  | 
5 | 0.0398 to 0.316 | Cc1cccc(-c2nnn(Cc3ccccc3)c2-c2ccc3ncc(N4CCC(N(C)C)C4)cc3n2)n1 (racemic) [Compound 331, rac-(3S)-1-[6-[3-benzyl-5-(6-methyl-2-pyridyl)triazol-4-yl]-1,5-naphthyridin-3-yl]-N,N-dimethyl-pyrrolidin-3-amine] | 200 to 1260 |  | 
6 | 0.0398 to 0.316 | Cc1nc(-c2nc3ccccn3c2-c2ccc3ncc(N4CCC(N(C)C)C4)cc3n2)ccc1F (racemic) [Compound 347, rac-(3S)-1-[6-[2-(5-fluoro-6-methyl-2-pyridyl)imidazo[1,2-a]pyridin-3-yl]-1,5-naphthyridin-3-yl]-N,N-dimethyl-pyrrolidin-3-amine] | 25.1 to 158 |  | 
7 |  | Cc1cccc(-c2n[nH]cc2-c2ccc3ncc(C4C[C@H]5CC[C@@H](C4)N5)cc3n2)n1 (mixture of isomers) [Compound 350, 2-[3-(6-methyl-2-pyridyl)-1H-pyrazol-4-yl]-7-[rac-(1S,5R)-8-azabicyclo[3.2.1]octan-3-yl]-1,5-naphthyridine] |  | 3.98 to 31.6 | 200 to 1260
8 | < 0.0316 | COCC1CN(c2cnc3ccc(-c4c[nH]nc4-c4cccc(C)n4)nc3c2)CCN1C (racemic) [Compound 354, 2-[3-(6-methyl-2-pyridyl)-1H-pyrazol-4-yl]-7-[rac-(3R)-3-(methoxymethyl)-4-methyl-piperazin-1-yl]-1,5-naphthyridine] | 25.1 to 158 |  | 
9 | < 0.0316 | Cc1nc(-c2n[nH]cc2-c2ccc3ncc(-c4cnn(C[C@H]5CCC[C@H](N)C5)c4)cc3n2)ccc1F (racemic) [Compound 395, rac-(1S,3S)-3-[[4-[6-[3-(5-fluoro-6-methyl-2-pyridyl)-1H-pyrazol-4-yl]-1,5-naphthyridin-3-yl]pyrazol-1-yl]methyl]cyclohexanamine] | 25.1 to 158 |  | 
10 | 0.398 to 3.16 | Cc1cccc(-c2n[nH]cc2-c2ccc3ncc(N4C[C@H]5C[C@@H]4CN5C)cc3n2)n1 (racemic) [Compound 437, 2-[3-(6-methyl-2-pyridyl)-1H-pyrazol-4-yl]-7-[rac-(1R,4R)-5-methyl-2,5-diazabicyclo[2.2.1]heptan-2-yl]-1,5-naphthyridine] | 25.1 to 158 |  | 
11 | 0.398 to 3.16 | Cc1cccc(-c2n[nH]cc2-c2ccc3ncc(N4C[C@@H](C)NC[C@H]4C)cc3n2)n1 (racemic) [Compound 462, 2-[3-(6-methyl-2-pyridyl)-1H-pyrazol-4-yl]-7-[rac-(2R,5R)-2,5-dimethylpiperazin-1-yl]-1,5-naphthyridine] | 25.1 to 158 |  | 
12 | < 0.0316 | Cc1nc(-c2n[nH]cc2-c2ccc3ncc(-c4cnn(C[C@H]5CCC[C@@H](N)C5)c4)cc3n2)ccc1F (racemic) [Compound 463, rac-(1R,3S)-3-[[4-[6-[3-(5-fluoro-6-methyl-2-pyridyl)-1H-pyrazol-4-yl]-1,5-naphthyridin-3-yl]pyrazol-1-yl]methyl]cyclohexanamine] | 25.1 to 158 |  | 
13 | 0.0398 to 0.316 | Cc1cccc(-c2n[nH]cc2-c2ccc3ncc(N4CCNC(C(N)=O)C4)cc3n2)n1 (racemic) [Compound 497, rac-(2S)-4-[6-[3-(6-methyl-2-pyridyl)-1H-pyrazol-4-yl]-1,5-naphthyridin-3-yl]piperazine-2-carboxamide] | 200 to 1260 |  | 
14 | < 0.0316 | Cc1cccc(-c2n[nH]cc2-c2ccc3ncc(N(C)C4CCN(C(C)C)C4)cc3n2)n1 (racemic) [Compound 503, N-methyl-6-[3-(6-methyl-2-pyridyl)-1H-pyrazol-4-yl]-N-[rac-(3R)-1-isopropylpyrrolidin-3-yl]-1,5-naphthyridin-3-amine] | 25.1 to 158 |  | 
15 | < 0.0316 | Cc1cccc(-c2n[nH]cc2-c2ccc3ncc(N4CCC(N(C)C)C4)cc3n2)n1 (racemic) [Compound 505, rac-(3S)-N,N-dimethyl-1-[6-[3-(6-methyl-2-pyridyl)-1H-pyrazol-4-yl]-1,5-naphthyridin-3-yl]pyrrolidin-3-amine] | 25.1 to 158 |  | 
16 | 0.0398 to 0.316 | Cc1cccc(-c2[nH]cnc2-c2ccc3ncc(NCCN(C)C4CCNC4)cc3c2)n1 (racemic) [Compound 537, N′-methyl-N-[6-[5-(6-methyl-2-pyridyl)-1H-imidazol-4-yl]-3-quinolyl]-N′-[rac-(3R)-pyrrolidin-3-yl]ethane-1,2-diamine] | 200 to 1260 |  | 
17 | 0.0398 to 0.316 | Cc1nc(-c2nc3ccccn3c2-c2ccc3ncc(N4CCC(N(C)C)C4)cc3c2)ccc1F (racemic) [Compound 544, rac-(3S)-1-[6-[2-(5-fluoro-6-methyl-2-pyridyl)imidazo[1,2-a]pyridin-3-yl]-3-quinolyl]-N,N-dimethyl-pyrrolidin-3-amine] | 25.1 to 158 |  | 
18 | 0.0398 to 0.316 | Cc1nc(-c2n[nH]cc2-c2ccc3ncc(-c4cnn(C[C@@H]5CC[C@H](N)C5)c4)cc3n2)ccc1F (racemic) [Compound 547, rac-(1S,3R)-3-[[4-[6-[3-(5-fluoro-6-methyl-2-pyridyl)-1H-pyrazol-4-yl]-1,5-naphthyridin-3-yl]pyrazol-1-yl]methyl]cyclopentanamine] | 200 to 1260 |  | 
